The values that follow come from patent US20070249519A1, “METHODS FOR THE UPREGULATION OF GLUT4 VIA MODULATION OF PPAR DELTA IN ADIPOSE TISSUE AND FOR THE TREATMENT OF DISEASE” (KALYPSYS, INC., priority 2006, published 2007).

Where only a bound is given, the exact number is not on record here.

The target in data set [1] is T1, PPAR alpha (Homo sapiens, UniProt Q07869).
T1 construct: expressed in transfected cells; host or cells: CV-1 cells
T1 sequence (Q07869 239-466 limits assumed): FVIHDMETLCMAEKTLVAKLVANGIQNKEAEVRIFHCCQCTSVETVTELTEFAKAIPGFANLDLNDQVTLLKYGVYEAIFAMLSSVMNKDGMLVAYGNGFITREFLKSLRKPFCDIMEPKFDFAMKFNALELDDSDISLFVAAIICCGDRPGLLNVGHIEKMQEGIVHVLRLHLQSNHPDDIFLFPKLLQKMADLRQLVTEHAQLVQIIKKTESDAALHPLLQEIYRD
The following applies: GAL4 chimera, CV-1 cells, luciferase; cited from earlier work.

Data set [2] deals with T2, PPAR gamma (Homo sapiens, UniProt P37231).
T2 construct: expressed in transfected cells; host or cells: CV-1 cells
T2 sequence (P37231 238-503 limits assumed): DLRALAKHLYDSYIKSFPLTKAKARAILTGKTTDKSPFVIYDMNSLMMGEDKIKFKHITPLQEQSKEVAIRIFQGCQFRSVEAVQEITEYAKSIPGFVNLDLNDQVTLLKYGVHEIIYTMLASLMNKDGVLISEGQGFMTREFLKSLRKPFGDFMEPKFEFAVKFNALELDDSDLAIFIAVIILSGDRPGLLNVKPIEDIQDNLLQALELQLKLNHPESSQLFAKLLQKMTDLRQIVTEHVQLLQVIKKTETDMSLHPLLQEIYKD
The following applies: GAL4 chimera, CV-1 cells, luciferase; cited from earlier work.

Data set [3] concerns the target T3, PPAR delta (Homo sapiens, UniProt Q03181).
T3 construct: expressed in transfected cells; host or cells: CV-1 cells
T3 sequence (Q03181 211-439 limits assumed): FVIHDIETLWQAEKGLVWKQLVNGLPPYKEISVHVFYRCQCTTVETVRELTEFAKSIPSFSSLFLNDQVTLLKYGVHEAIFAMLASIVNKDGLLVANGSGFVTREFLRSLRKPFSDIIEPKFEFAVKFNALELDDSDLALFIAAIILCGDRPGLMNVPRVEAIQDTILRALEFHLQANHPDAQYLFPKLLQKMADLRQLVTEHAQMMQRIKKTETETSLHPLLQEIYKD
The following applies: GAL4 chimera, CV-1 cells, luciferase; cited from earlier work.

Data set [4] in a line: Insulin tolerance testing (ITT), DIO model in mice. The following applies: NC and HFD cohorts, 3 and 9 mg/kg. It is filed as in vivo, C57B1/6j mice. The source says:
(§1) Metabolic syndrome in humans is characterized by abdominal obesity, high triglycerides, impaired fasting glucose and hyperinsulinemia. In the DIO model, mice are fed high fat diet (HFD, Research diet D12492, Research Diet, N.J.) diet (58% lard) for the entire period of the study. Compared to normal chow (NC, Harlan-Tekland #8604, WI) fed animals the HF fed mice develop several features of metabolic syndrome such as hypertriglyceridemia, hyperinsulinemia and mild hyperglycemia, as early as two weeks, on this diet. […] Additionally, GLUT4 expression is down regulated in HF-fed C57B1/6j mice after 4 weeks. […]
(§2) C57B1/6j mice (n=5-6 for each group) were fed ad libitum with either the HFD (58% fat) or NC (5%) diet for 4 weeks prior to start of experiments, and throughout the course of each experiment (Days −27 to Day 60). […] Plasma Insulin, and glucose levels under fasting and postprandial (PP) conditions were measured using the Ultrasensitive Mouse Insulin ELISA kit (Mercodia) and glucometer (Accu-Check Compact, Roche) respectively. […] Tissues were collected at sacrifice at 3-4 hours post dosing with compound 1 or compound 2 in a fed state and GLUT4 mRNA expression was assessed using GLUT4 specific probes and branched DNA (bDNA) analyses (Epicenter Biotechnologies).

Data set [5] deals with GLUT4 mRNA expression. In words: GLUT4 mRNA expression in muscle tissue, DIO model in mice. The format is in vivo, C57B1/6j mice. The note with it: 14 weeks of treatment, 3 or 9 mg/kg, NC or HFD, vs vehicle.
Source text: as §1, §2

Data set [6] is described as follows: Glucose tolerance testing (GTT), DIO model in mice. It is filed as in vivo, C57B1/6j mice. The source says: Metabolic syndrome in humans is characterized by abdominal obesity, high triglycerides, impaired fasting glucose and hyperinsulinemia. In the DIO model, mice are fed high fat diet (HFD, Research diet D12492, Research Diet, N.J.) diet (58% lard) for the entire period of the study. Compared to normal chow (NC, Harlan-Tekland #8604, WI) fed animals the HF fed mice develop several features of metabolic syndrome such as hypertriglyceridemia, hyperinsulinemia and mild hyperglycemia, as early as two weeks, on this diet. […] Additionally, GLUT4 expression is down regulated in HF-fed C57B1/6j mice after 4 weeks. This model was used to evaluate the pharmacological effects of a Compound 1 and Compound 2 in mitigating several features of HFD induced metabolic syndrome in rodents.
(§3) C57B1/6j mice (n=5-6 for each group) were fed ad libitum with either the HFD (58% fat) or NC (5%) diet for 4 weeks prior to start of experiments, and throughout the course of each experiment (Days −27 to Day 60). Starting on Day 1, mice were dosed BID with either 3 mg/kg Compound 1+vehicle, 9 mg/kg Compound 1+vehicle, 3 mg/kg Compound 2+vehicle, or vehicle alone, for the entire period of the study (day 0-60). Plasma Insulin, and glucose levels under fasting and postprandial (PP) conditions were measured using the Ultrasensitive Mouse Insulin ELISA kit (Mercodia) and glucometer (Accu-Check Compact, Roche) respectively. Appropriate dilutions were made in each case to ensure that the samples remained in the linear range of the standard curve. Animals were sacrificed and levels of Compound 1 and Compound 2 in adipose and muscle tissue were assayed using LC/Mass Spec. Tissues were collected at sacrifice at 3-4 hours post dosing with compound 1 or compound 2 in a fed state and GLUT4 mRNA expression was assessed using GLUT4 specific probes and branched DNA (bDNA) analyses (Epicenter Biotechnologies).

In data set [7] the test system is GLUT4 mRNA expression. In words: GLUT4 mRNA expression in adipose tissue, DIO model in mice. It is filed as in vivo, C57B1/6j mice. The following applies: 3 or 9 mg/kg.
Source text: as §1, §2

Data set [8] in a line: Compound level in adipose tissue by LC/Mass Spec, DIO model in mice. The format is in vivo, C57B1/6j mice. The following applies: 8 weeks of treatment, 3 or 9 mg/kg/d Compound 1 vs 3 mg/kg/day Compound 2. The protocol:
as §3

Data set [9] relates to GLUT4 translocation. The note with it: ZDF ob/ob and DIO C57BL/6 mice; cited from earlier work.
The test system of data set [10] is GLUT4. The following applies: in vivo; cited from earlier work.
The conditions of data set [11]: in vivo; cited from earlier work.

Usually EC50 stands for the concentration that produces a half-maximal response. For `C[C@@H]1CN(Cc2ccc(OC(F)(F)F)cc2)C[C@H](C)N1S(=O)(=O)c1cccc2c1C[C@@H](C(=O)O)C2` [Compound 3A, (S)-4-[cis-2,6-Dimethyl-4-(4-trifluoromethoxy-benzyl)-piperazine-1-sulfonyl]-indan-2-carboxylic acid], the results for the EC50 in [1], in data set [2] and in [3] were more than 100 µM, 5 to 100 µM and less than 5 µM, respectively.
On to `C[C@@H]1CN(Cc2ccc(OC(F)(F)F)cc2)C[C@H](C)N1S(=O)(=O)c1cccc2c1CC(C(=O)O)C2` (mixture of isomers) [Compound 3, 4-[cis-2,6-Dimethyl-4-(4-trifluoromethoxy-benzyl)-piperazine-1-sulfonyl]-indan-2-carboxylic acid], for which the EC50 in [1] was 5 to 100 µM; in data set [2], 5 to 100 µM; in [3] it was less than 5 µM.
For the compound `C[C@@H]1CN(c2ccc(OC(F)(F)F)cc2)C[C@H](C)N1S(=O)(=O)c1cccc2c1CC(C(=O)O)C2` (mixture of isomers) [Compound 1, 4-[cis-2,6-Dimethyl-4-(4-trifluoromethoxy-phenyl)-piperazine-1-sulfonyl]-indan-2-carboxylic acid], the “plasma glucose during ITT (FIGS. 9 and 10)” value in data set [4] is on record as “attenuated plasma glucose output”. Also, in [5], the “GLUT4 mRNA expression in murine muscle tissue (FIG. 1)” value was “no significant increase”. Further, in data set [6] (HFD cohort, 3 and 9 mg/kg), the “plasma glucose during GTT, effect by dose (FIG. 6)” value is recorded as “an effect was seen at both doses”. In addition, the “plasma glucose during GTT (FIGS. 5 and 6)” value in data set [6] (NC and HFD cohorts) is given as “increased glucose disposal”. Besides, the “plasma insulin during GTT (FIGS. 7 and 8)” value in [6] (NC and HFD cohorts) was “decreased insulin levels”. Moreover, the EC50 in data set [1] is more than 100 µM; in data set [2] it was more than 100 µM; in data set [3], less than 5 µM. The “GLUT4 mRNA expression in murine adipose tissue (FIG. 3)” value in data set [7] (8 weeks of treatment, HFD cohort) is reported as “upregulated”. Moreover, the “GLUT4 mRNA expression in murine adipose tissue (FIG. 2)” value in [7] (14 days of treatment, HFD fed mice) is “normalized expression of GLUT-4”. Also, the “uptake (concentration) in murine adipose tissue (FIG. 4)” value in data set [8] is “preferentially uptaken over Compound 2”.
Take `CC(=O)NCCOC(=O)[C@H](Oc1cccc(C(F)(F)F)c1)c1ccc(Cl)cc1` [MBX-102]: the “insulin sensitivity and GLUT4 translocation in adipose and muscular tissue” value in data set [9] was “enhanced insulin sensitivity and GLUT4 translocation”.
As to `C[C@@H]1CN(c2ccc(OC(F)(F)F)cc2)C[C@H](C)N1S(=O)(=O)c1cccc2c1C[C@@H](C(=O)O)C2` [Compound 1A, (S)-4-[cis-2,6-Dimethyl-4-(4-trifluoromethoxy-phenyl)-piperazine-1-sulfonyl]-indan-2-carboxylic acid], the values for the EC50 in data set [1], in data set [2] and in [3] were more than 100 µM, more than 100 µM and less than 5 µM, respectively.
As for `Cc1cc(SCc2sc(-c3ccc(C(F)(F)F)cc3)nc2C)ccc1OCC(=O)O` [Compound 2, {2-Methyl-4-[4-methyl-2-(4-trifluoromethyl-phenyl)-thiazol-5-ylmethylsulfanyl]-phenoxy}-acetic acid], the “expression of GLUT4 in rat skeletal muscle” value in data set [10] is given as “increased expression of GLUT4”. Besides, in [11], the tissue partitioning entry is recorded as “preferentially partitions into muscular tissue”.
